According to patent publication US10029986B2, “Alkynyl pyridine-substituted amide compound and pesticide” (NISSAN CHEMICAL INDUSTRIES, LTD., priority 2014, dated 2018):

Legend:
[1] = test system: Sclerotinia sclerotiorum; assay: Test on the preventive effect against cucumber stem rot; type: in vivo; settings: 48 h, test solution A 500 ppm, 5 ml per pot, agar block inoculation, 2 days at 20° C.
Procedure: (§1) Compounds of the present invention were dissolved in a solvent for emulsion (a mixture of Sorpol (registered trademark) 3005XL (manufactured by Toho Chemical Industry Co., Ltd.): N-methylpyrrolidone: Solvesso (registered trademark) 200 (manufactured by ExxonMobil Chemical) in a ratio of 1:5:2) to prepare 20 wt % emulsifiable concentrates. Then, distilled water was added to dilute the emulsifiable concentrates to the prescribed concentration (500 ppm), and the obtained solutions were used in the following the Test Examples 1 to 8. Cucumber (varieties: Sagami Hanjiro) was seeded in 90 cm^3 plastic pot, and at the cotyledon stage, 5 ml per pot of test solution A of the compounds of the present invention was applied. After drying in air, the pot was transferred in a plastic container, and an agar blocks (diameter: 5 mm) containing Sclerotinia sclerotiorum which was preliminarily cultivated in a PDA medium was inoculated to the seed leaves of the cucumber treated with the solution. After the inoculation, the plastic container was covered with a plastic sheet, and placed at 20° C. and humidified for 2 days, thus the proportion of the formed lesion in the inoculated leaves were measured to calculate the control value in accordance with the same formula as in the Test Example 1. The test was carried out in duplicate.

[2] = test system: Asperaillus niger; assay: Test on the antifungal activity against Asperaillus niger; type: cell-based; settings: 48 h; test solution B 100 ppm, 10 μl per well, 96 well plate, 25° C. dark, 2 days after treatment; read-out: efficacy (flora area ratio relative to non-treated well)
Procedure: Compounds of the present invention were dissolved in dimethyl sulfoxide to prepare 1 wt % solutions. Then, distilled water was added to dilute the solutions to the prescribed concentration (100 ppm), and the obtained solutions were used in the following the Test Examples 9 to 12. 60 μl of a potato dextrose 1% agar medium was added to each well of a 96 well plate, and 30 μl of sterilized water containing spores of Asperaillus niger (10 spores/3 μl) was added to each well. Further, 10 μl per well of test solution B of the compounds of the present invention was added, and the plate was left at rest at 25° C. under dark conditions. 2 days after treatment, the flora area ratio (%) was determined to calculate the efficacy (%) relative to the non-treated well in accordance with the following formula. Efficacy (%)=[1−(flora area ratio in treated plot/flora area ratio in non-treated well)]×100

[3] = test system: Phaeosphaeria nodorum (Synonym: Septoria nodorum); assay: Test on the preventive effect against wheat glume blotch; type: in vivo; settings: Parastagonospora nodorum, 144 h; test solution A 500 ppm, 5 ml per pot, wheat 1.3-leaf stage, 2 days inoculation chamber then 6 days at 20° C.
Procedure: Compounds of the present invention were dissolved in a solvent for emulsion (a mixture of Sorpol (registered trademark) 3005XL (manufactured by Toho Chemical Industry Co., Ltd.): N-methylpyrrolidone: Solvesso (registered trademark) 200 (manufactured by ExxonMobil Chemical) in a ratio of 1:5:2) to prepare 20 wt % emulsifiable concentrates. Then, distilled water was added to dilute the emulsifiable concentrates to the prescribed concentration (500 ppm), and the obtained solutions were used in the following the Test Examples 1 to 8. Wheat (varieties: Haruyutaka) was seeded in 90 cm^3 plastic pot, and at 1.3-leaf stage, 5 ml per pot of test solution A of the compounds of the present invention was applied. One day after treatment, a suspension of conidium of Phaeosphaeria nodorum (Synonym: Septoria nodorum) was sprayed to the wheat, and the pot was left in the inoculation chamber at 20° C. under humidity of 100% RH for 2 days. Then, the pot was placed in an air-conditioned greenhouse (20° C.) for 6 days. The proportion of the formed lesion in the inoculated leaves were measured to calculate the control value in accordance with the same formula as in the Test Example 1. The test was carried out in duplicate.

[4] = test system: Barber pole worm (Haemonchus contortus); assay: Insecticidal test against Barber pole worm (eggs, 96 well plate); type: in vivo; settings: 96 h, test solution B 100 ppm, 10 μl per well, 25° C. dark, 4 days after treatment, read-out: efficacy (unhatched eggs and inactive larvae relative to non-treated)
Procedure: Compounds of the present invention were dissolved in dimethyl sulfoxide to prepare 1 wt % solutions. Then, distilled water was added to dilute the solutions to the prescribed concentration (100 ppm), and the obtained solutions were used in the following the Test Examples 9 to 12. 60 μl of a potato dextrose 1% agar medium was added to each well of a 96 well plate, and 30 μl of sterilized water containing eggs of Barber pole worm (Haemonchus contortus) (10 eggs/3 μl) was added to each well. Further, 10 μl per well of test solution B of the compounds of the present invention was added, and the plate was left at rest at 25° C. under dark conditions.

[5] = test system: Blumeria graminis f. sp. tritici; assay: Test on the preventive effect against wheat powdery mildew; type: in vivo; settings: 168 h, test solution A 500 ppm, 5 ml per pot, wheat 1.3-leaf stage, 7 days after inoculation
Procedure: Compounds of the present invention were dissolved in a solvent for emulsion (a mixture of Sorpol (registered trademark) 3005XL (manufactured by Toho Chemical Industry Co., Ltd.): N-methylpyrrolidone: Solvesso (registered trademark) 200 (manufactured by ExxonMobil Chemical) in a ratio of 1:5:2) to prepare 20 wt % emulsifiable concentrates. Then, distilled water was added to dilute the emulsifiable concentrates to the prescribed concentration (500 ppm), and the obtained solutions were used in the following the Test Examples 1 to 8. Wheat (varieties: Norin 61) was seeded in 90 cm^3 plastic pot, and at the 1.3-leaf stage, 5 ml per pot of test solution A of the compounds of the present invention were applied. One day after treatment, the pot was placed in an air-conditioned greenhouse (20° C.), and conidium of Blumeria graminis f. sp. tritici was inoculated to the wheat. 7 days after, the proportion of the formed lesion in the inoculated leaves were measured to calculate the control value in accordance with the same formula as in the Test Example 1. The test was carried out in duplicate.

[6] = test system: Botrytis cinerea; assay: Test on the preventive effect against cucumber gray mold (mycelium inoculation); type: in vivo; settings: 48 h, test solution A 500 ppm, 5 ml per pot, cucumber cotyledon, agar block inoculation, 2 days at 20° C.
Procedure: as §1, with “applied. On the next day,” for “applied. After drying in air,”, “containing Botrytis cinerea” for “containing Sclerotinia sclerotiorum”, “inoculated on” for “inoculated to”, “the cotyledon” for “the seed leaves”, “sheet, then” for “sheet, and”, “2 days. Thus” for “2 days, thus”

In the case of `CC(C)(CNC(=O)c1cccnc1C(F)F)c1ncc(C#CC2CC2)cc1Cl` [3-007, N-[2-[3-chloro-5-(cyclopropylethynyl)pyridin-2-yl]-2-methylpropyl]-2-(difluoromethyl)nicotinamide], the pest or weed control at 500 µg/mL [1] is reported as at least 70%, the inhibition of growth at 100 µg/mL [2] is reported as at least 50% and the pest or weed control at 500 µg/mL [3] is reported as at least 70%. For the same compound, the pest or weed control at 100 µg/mL [4] was at least 50%, the pest or weed control at 500 µg/mL [5] was at least 70% and the pest or weed control at 500 µg/mL [6] was at least 70%.

For `CC(CNC(=O)c1cn(C)nc1C(F)F)c1ncc(C#CC2CC2)cc1Cl` (centres unmarked) [8-007], the pest or weed control at 500 µg/mL [1] was at least 70%, the inhibition of growth at 100 µg/mL [2] was at least 50% and the pest or weed control at 500 µg/mL [3] was at least 70%. It also gave a pest or weed control at 100 µg/mL [4] of at least 50%, a pest or weed control at 500 µg/mL [5] of at least 70% and a pest or weed control at 500 µg/mL [6] of at least 70%.

With `CC(Cc1ncc(C#Cc2ccccc2)cc1Cl)NC(=O)c1cn(C)nc1C(F)F` (centres unmarked) [8-027] the pest or weed control at 500 µg/mL [1] was at least 70%, the pest or weed control at 500 µg/mL [3] was at least 70% and the pest or weed control at 500 µg/mL [5] was at least 70%. The pest or weed control at 500 µg/mL [6] was at least 70%.

With `O=C(NCC(F)(F)c1ncc(C#CC2CC2)cc1Cl)c1cccnc1C(F)F` [3-003, N-[2-[3-chloro-5-(cyclopropylethynyl)pyridin-2-yl]-2,2-difluoroethyl]-2-(difluoromethyl)nicotinamide] the pest or weed control at 500 µg/mL [1] was at least 70%, the inhibition of growth at 100 µg/mL [2] was at least 50% and the pest or weed control at 500 µg/mL [3] was at least 70%. The pest or weed control at 100 µg/mL [4] was at least 50%, the pest or weed control at 500 µg/mL [5] was at least 70% and the pest or weed control at 500 µg/mL [6] was at least 70%.

In the case of `CC(Cc1ncc(C#CC2CC2)cc1Cl)NC(=O)c1cn(C)nc1C(F)F` (centres unmarked) [8-024, N-[2-[3-chloro-5-(cyclopropylethynyl)pyridin-2-yl]-1-methylethyl]-3-difluoromethyl-1-methyl-1H-pyrazole-4-carboxamide], the pest or weed control at 500 µg/mL [1] is reported as at least 70%, the pest or weed control at 500 µg/mL [3] is reported as at least 70% and the pest or weed control at 500 µg/mL [5] is reported as at least 70%. For the same compound, the pest or weed control at 500 µg/mL [6] was at least 70%.

Compound `Cn1cc(C(=O)NCC(c2ncc(C#CC3CC3)cc2Cl)C2CC2)c(C(F)F)n1` (centres unmarked) [8-009] has a pest or weed control at 500 µg/mL [1] of at least 70%, an inhibition of growth at 100 µg/mL [2] of at least 50% and a pest or weed control at 500 µg/mL [3] of at least 70%. It also gave a pest or weed control at 100 µg/mL [4] of at least 50%, a pest or weed control at 500 µg/mL [5] of at least 70% and a pest or weed control at 500 µg/mL [6] of at least 70%.

With `CC(C)(C)C#Cc1cnc(CCNC(=O)c2cccnc2C(F)F)c(Cl)c1` [3-002] the pest or weed control at 500 µg/mL [1] was at least 70%, the inhibition of growth at 100 µg/mL [2] was at least 50% and the pest or weed control at 500 µg/mL [3] was at least 70%. For the same compound, the pest or weed control at 100 µg/mL [4] was at least 50%, the pest or weed control at 500 µg/mL [5] was at least 70% and the pest or weed control at 500 µg/mL [6] was at least 70%.

With `Cn1cc(C(=O)NCC(C)(C)c2ncc(C#CC3CC3)cc2Cl)c(C(F)F)n1` [8-008] the pest or weed control at 500 µg/mL [1] was at least 70%, the inhibition of growth at 100 µg/mL [2] was at least 50% and the pest or weed control at 500 µg/mL [3] was at least 70%. It also gave a pest or weed control at 100 µg/mL [4] of at least 50%, a pest or weed control at 500 µg/mL [5] of at least 70% and a pest or weed control at 500 µg/mL [6] of at least 70%.

`Cn1cc(C(=O)NCC2(c3ncc(C#CC4CC4)cc3Cl)CC2)c(C(F)F)n1` [8-018, N-[[1-[3-chloro-5-(cyclopropylethynyl)pyridin-2-yl]cyclopropyl]methyl]-3-difluoromethyl-1-methyl-1H-pyrazole-4-carboxamide] gave a pest or weed control at 500 µg/mL [1] of at least 70%, a pest or weed control at 500 µg/mL [3] of at least 70% and a pest or weed control at 100 µg/mL [4] of at least 50%. For the same compound, the pest or weed control at 500 µg/mL [5] was at least 70% and the pest or weed control at 500 µg/mL [6] was at least 70%.

With `COC(=O)C(CNC(=O)c1cn(C)nc1C(F)F)c1ncc(C#CC2CC2)cc1Cl` (centres unmarked) [8-022, 2-[3-chloro-5-(cyclopropylethynyl)pyridin-2-yl]-3-(3-difluoromethyl-1-methyl-1H-pyrazole-4-carboxamide)propionic acid methyl ester] the pest or weed control at 500 µg/mL [1] was at least 70%, the pest or weed control at 500 µg/mL [3] was at least 70% and the pest or weed control at 500 µg/mL [5] was at least 70%. For the same compound, the pest or weed control at 500 µg/mL [6] was at least 70%.

In the case of `COC(c1ncc(C#CC2CC2)cc1Cl)C(C)NC(=O)c1nccnc1C(F)(F)F` (centres unmarked) [4-004], the pest or weed control at 500 µg/mL [1] is reported as at least 70%, the pest or weed control at 500 µg/mL [3] is reported as at least 70% and the pest or weed control at 100 µg/mL [4] is reported as at least 50%. The pest or weed control at 500 µg/mL [5] was at least 70% and the pest or weed control at 500 µg/mL [6] was at least 70%.

In the case of `CC#Cc1cnc(CCNC(=O)c2ccccc2C(F)(F)F)c(Cl)c1` [1-001, N-[2-[3-chloro-5-(1-propynyl)pyridin-2-yl]ethyl]-2-(trifluoromethyl)benzamide], the pest or weed control at 500 µg/mL [1] is reported as at least 70%, the pest or weed control at 500 µg/mL [3] is reported as at least 70% and the pest or weed control at 100 µg/mL [4] is reported as at least 50%. For the same compound, the pest or weed control at 500 µg/mL [5] was at least 70% and the pest or weed control at 500 µg/mL [6] was at least 70%.

For `CC(NC(=O)c1ccccc1C(F)(F)F)C(OCc1ccccc1)c1ncc(C#CC2CC2)cc1Cl` (centres unmarked) [1-031, N-[2-benzyloxy-2-[3-chloro-5-(cyclopropylethynyl)pyridin-2-yl]-1-methylethyl]-2-(trifluoromethyl)benzamide], the pest or weed control at 500 µg/mL [1] was at least 70%, the pest or weed control at 500 µg/mL [3] was at least 70% and the pest or weed control at 500 µg/mL [5] was at least 70%. It also gave a pest or weed control at 500 µg/mL [6] of at least 70%.

With `CSC(CNC(=O)c1cn(C)nc1C(F)F)c1ncc(C#CC2CC2)cc1Cl` (centres unmarked) [8-020, N-[2-[3-chloro-5-(cyclopropylethynyl)pyridin-2-yl]-2-(methylthio)ethyl]-3-difluoromethyl-1-methyl-1H-pyrazole-4-carboxamide] the pest or weed control at 500 µg/mL [1] was at least 70%, the inhibition of growth at 100 µg/mL [2] was at least 50% and the pest or weed control at 100 µg/mL [4] was at least 50%. It also gave a pest or weed control at 500 µg/mL [5] of at least 70% and a pest or weed control at 500 µg/mL [6] of at least 70%.

`O=C(NCC(c1ncc(C#CC2CC2)cc1Cl)C1CC1)c1ccccc1C(F)(F)F` (centres unmarked) [1-009] showed a pest or weed control at 500 µg/mL [1] of at least 70%, an inhibition of growth at 100 µg/mL [2] of at least 50% and a pest or weed control at 500 µg/mL [3] of at least 70%. The pest or weed control at 100 µg/mL [4] was at least 50% and the pest or weed control at 500 µg/mL [5] was at least 70%.
